# Data reported in patent US10016515B2, “DMA, a bis-benzimidazole, confers radioprotection to the intestine via Akt/NFκB dual pathway activation” (Jawaharlal Nehru University, priority 2016, dated 2018).
# Like-named read-outs stand apart in the source and are kept apart here.
# Experiment: Tissue bio-distribution and tissue pharmacokinetics of DMA
# Type: in vivo, mouse
# Settings: for concentration at 4 h / concentration at 6 h / concentration at 16 h / half-life / Tmax / concentration at 1 h / concentration at 2 h / concentration at 24 h / Cmax: Balb/c, mouse; for half-life / Tmax / Cmax: 100 mg/kg oral dose
# Description: Tissue samples were collected from the same mice from which blood samples were collected in both doses of DMA. Lung, liver, kidney, intestine, heart, spleen, brain were dissected and rinsed with phosphate buffer saline (PBS) and dried on blotting paper. 100 mg of tissue sample was homogenized for 20 s in chilled acetronitrile and water and further 700 μl chilled acetronitrile was added. The sample was centrifuged at 14000 rpm for 10 min and clear supernatant was collected for analysis on HPLC-MS/MS system.
# A standard DMA calibration from 1-1000 ng/ml with internal standard (20 ng/ml) was quantified. Sample analysis was performed on positive ionization mode LC-MS/MS with multiple reactions monitoring (MRM, m/z Q1/Q3) of DMA (m/z 235.1/412.0, retention time (RT) 5.3 min) and internal standard (m/z 227.1/396.0, RT 6.5 min) (Agilent 6410 series). A gradient method was employed to analyze the plasma samples using mobile phase A (0.1% formic acid in water) and mobile phase B (methanol). The B % was set as 30 (0 min), 90 (10-14 min), 30 (14-24 min) with flow rate of 0.3 ml/min. An injection volume of 10 μl was used for analysis.
# Peak tissue concentration (Cmax) of DMA and time to reach the Cmax (tmax) were read directly from the raw data by visual examination of mean tissue concentration-time profile. The tissue concentration-time data following oral dose were subjected to one-, two- and three-compartmental models using WinNonlin program (version 6.3; Certara Inc, Missouri, USA) to calculate the pharmacokinetic parameters. The pharmacokinetic models were compared according to maximal correlation between observed and predicted concentration, minimal sum of squared residuals, Akaike Information Criterion (AIC) and Schwarz Bayesian Criterion (SBC). However, the tissue concentration-time data following intravenous administration were subjected to non-compartmental approach.
# [1] = kidney, Oral 100 mg/kg, read-out: Tissue DMA concentration, Kidney
# [2] = liver, iv, i.v. 50 mg/kg, read-out: Tissue DMA concentration, Liver
# [3] = liver, Oral 100 mg/kg, read-out: Tissue DMA concentration, Liver
# [4] = lung, iv, i.v. 50 mg/kg, read-out: Tissue DMA concentration, Lung
# [5] = lung, Oral 100 mg/kg, read-out: Tissue DMA concentration, Lung
# [6] = spleen, iv, i.v. 50 mg/kg, read-out: Tissue DMA concentration, Spleen
# [7] = spleen, Oral 100 mg/kg, read-out: Tissue DMA concentration, Spleen
compound,measurement,setting,value
"COc1ccc(-c2nc3cc(-c4nc5cc(N6CCN(C)CC6)ccc5[nH]4)ccc3[nH]2)cc1OC [DMA, 5-(4-methylpiperazin-1-yl)-2-[2′-(3,4-dimethoxyphenyl)-5′-benzimidazolyl]benzimidazole]",concentration at 4 h,"kidney, iv, i.v. 50 mg/kg, 4 h, read-out: Tissue DMA concentration, Kidney",9080 ng/g
same,concentration at 6 h,"kidney, iv, i.v. 50 mg/kg, 6 h, read-out: Tissue DMA concentration, Kidney",707 ng/g
same,concentration at 16 h,"kidney, iv, i.v. 50 mg/kg, read-out: Tissue DMA concentration, Kidney",263 ng/g
same,half-life,"kidney, read-out: Half life, Kidney (converted)",2.5 h
same,Tmax,"kidney, read-out: Tmax, Kidney",4 h
same,concentration at 1 h,"kidney, Oral 100 mg/kg, 1 h, read-out: Tissue DMA concentration, Kidney",342 ng/g
same,concentration at 2 h,[1],1020 ng/g
same,concentration at 4 h,"kidney, Oral 100 mg/kg, 4 h, read-out: Tissue DMA concentration, Kidney",1530 ng/g
same,concentration at 6 h,"kidney, Oral 100 mg/kg, 6 h, read-out: Tissue DMA concentration, Kidney",643 ng/g
same,concentration at 16 h,[1],193 ng/g
same,concentration at 1 h,"liver, intravenous, 50 mg/kg i.v., read-out: Concentration achieved in liver",41600 ng/g
same,concentration at 1 h,"liver, iv, i.v. 50 mg/kg, 1 h, read-out: Tissue DMA concentration, Liver",41600 ng/g
same,concentration at 2 h,[2],2000 ng/g
same,concentration at 4 h,"liver, iv, i.v. 50 mg/kg, 4 h, read-out: Tissue DMA concentration, Liver",30100 ng/g
same,concentration at 6 h,"liver, iv, i.v. 50 mg/kg, 6 h, read-out: Tissue DMA concentration, Liver",40100 ng/g
same,concentration at 16 h,[2],22200 ng/g
same,half-life,"liver, read-out: Half life, Liver (converted)",4 h
same,Tmax,"liver, read-out: Tmax, Liver",4 h
same,concentration at 1 h,"liver, Oral 100 mg/kg, 1 h, read-out: Tissue DMA concentration, Liver",161 ng/g
same,concentration at 2 h,[3],415 ng/g
same,concentration at 4 h,"liver, Oral 100 mg/kg, 4 h, read-out: Tissue DMA concentration, Liver",2230 ng/g
same,concentration at 6 h,"liver, Oral 100 mg/kg, 6 h, read-out: Tissue DMA concentration, Liver",735 ng/g
same,concentration at 16 h,[3],691 ng/g
same,concentration at 24 h,[3],192 ng/g
same,concentration at 1 h,"lung, intravenous, 50 mg/kg i.v., read-out: Concentration achieved in lung",109000 ng/g
same,concentration at 1 h,"lung, iv, i.v. 50 mg/kg, 1 h, read-out: Tissue DMA concentration, Lung",109000 ng/g
same,concentration at 2 h,[4],2340 ng/g
same,concentration at 4 h,"lung, iv, i.v. 50 mg/kg, 4 h, read-out: Tissue DMA concentration, Lung",1770 ng/g
same,concentration at 6 h,"lung, iv, i.v. 50 mg/kg, 6 h, read-out: Tissue DMA concentration, Lung",1340 ng/g
same,concentration at 16 h,[4],993 ng/g
same,concentration at 24 h,[4],730 ng/g
same,concentration at 4 h,"lung, 100 mg/kg oral, at 4 h, read-out: Concentration reached in lung",1000 ng/g
same,concentration at 1 h,"lung, Oral 100 mg/kg, 1 h, read-out: Tissue DMA concentration, Lung",211 ng/g
same,concentration at 2 h,[5],436 ng/g
same,concentration at 4 h,"lung, Oral 100 mg/kg, 4 h, read-out: Tissue DMA concentration, Lung",1000 ng/g
same,concentration at 6 h,"lung, Oral 100 mg/kg, 6 h, read-out: Tissue DMA concentration, Lung",538 ng/g
same,concentration at 16 h,[5],188 ng/g
same,Cmax,"small intestine, read-out: Cmax, Small Intestine",106000 ng/g
same,half-life,"small intestine, read-out: Half life, Small Intestine (converted)",1.9 h
same,Tmax,"small intestine, read-out: Tmax, Small Intestine",2 h
same,concentration at 6 h,"spleen, intravenous, 50 mg/kg i.v., read-out: Concentration achieved in spleen",12100 ng/g
same,concentration at 1 h,"spleen, iv, i.v. 50 mg/kg, 1 h, read-out: Tissue DMA concentration, Spleen",6970 ng/g
same,concentration at 2 h,[6],6450 ng/g
same,concentration at 4 h,"spleen, iv, i.v. 50 mg/kg, 4 h, read-out: Tissue DMA concentration, Spleen",2090 ng/g
same,concentration at 6 h,"spleen, iv, i.v. 50 mg/kg, 6 h, read-out: Tissue DMA concentration, Spleen",12100 ng/g
same,concentration at 16 h,[6],9600 ng/g
same,concentration at 1 h,"spleen, 50 mg/kg intravenous, read-out: C1 hr, Spleen",6970 ng/g
same,Cmax,"spleen, read-out: Cmax, Spleen",1310 ng/g
same,half-life,"spleen, read-out: Half life, Spleen (converted)",4.2 h
same,Tmax,"spleen, read-out: Tmax, Spleen",2 h
same,concentration at 1 h,"spleen, Oral 100 mg/kg, 1 h, read-out: Tissue DMA concentration, Spleen",401 ng/g
same,concentration at 2 h,[7],1310 ng/g
same,concentration at 4 h,"spleen, Oral 100 mg/kg, 4 h, read-out: Tissue DMA concentration, Spleen",681 ng/g
same,concentration at 6 h,"spleen, Oral 100 mg/kg, 6 h, read-out: Tissue DMA concentration, Spleen",558 ng/g
same,concentration at 16 h,[7],254 ng/g
same,"Tissue DMA concentration, Intestine","i.v. 50 mg/kg, 1 h",1260000 ng/g of tissue
same,Tissue accumulation,oral and i.v.,preferential accumulation in small intestine
